Assay results from PubChem BioAssay AID602353 (The Scripps Research Institute Molecular Screening Center, 2012).
Activity calls are given as the source filed them. No rule for the calls is given here.

Experiments:
Test in all cases: in vivo serine hydrolase selectivity profiling, late-stage follow-up, in vivo study for DAGLb inhibitor project, ABPP MudPIT, LC-MS, mouse (AID 602353)
Abhd10 = settings: mouse tissue ABPP MudPIT, FP-probe spectral counts, vehicle vs compound significance, stronger effect = lower value
Abhd11 = settings: mouse tissue ABPP MudPIT, FP-probe spectral counts, stronger effect = lower value
Abhd12 = settings: mouse tissue ABPP MudPIT, FP-probe spectral counts, stronger effect = lower value
Abhd6 = settings: mouse tissue ABPP MudPIT, FP-probe spectral counts, vehicle vs compound significance, stronger effect = lower value
Acot1 = settings: mouse tissue ABPP MudPIT, FP-probe spectral counts, stronger effect = lower value
Acot2 = settings: mouse tissue ABPP MudPIT, FP-probe spectral counts, stronger effect = lower value
[1] = target: Acyl-protein thioesterase 1 (Mus musculus) (UniProt P97823); settings: mouse tissue ABPP MudPIT, FP-probe spectral counts; Lypla1; stronger effect = lower value
Chain of Acyl-protein thioesterase 1 (Mus musculus) (P97823 whole entry, looked up): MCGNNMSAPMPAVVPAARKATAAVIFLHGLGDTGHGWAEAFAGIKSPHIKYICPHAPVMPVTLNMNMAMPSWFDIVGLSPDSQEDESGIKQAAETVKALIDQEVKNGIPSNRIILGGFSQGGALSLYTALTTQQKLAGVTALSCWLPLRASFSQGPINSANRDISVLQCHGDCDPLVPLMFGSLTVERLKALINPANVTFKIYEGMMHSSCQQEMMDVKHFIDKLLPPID

Aoah = settings: mouse tissue ABPP MudPIT, FP-probe spectral counts, stronger effect = lower value
Apeh = settings: mouse tissue ABPP MudPIT, FP-probe spectral counts, stronger effect = lower value
Ctsa = settings: mouse tissue ABPP MudPIT, FP-probe spectral counts, stronger effect = lower value
Ctsg = settings: mouse tissue ABPP MudPIT, FP-probe spectral counts, stronger effect = lower value
Daglb = settings: mouse tissue ABPP MudPIT, FP-probe spectral counts, vehicle vs compound significance, stronger effect = lower value
[2] = target: Diacylglycerol lipase-beta (Mus musculus) (UniProt Q91WC9); settings: mouse tissue ABPP MudPIT, FP-probe spectral counts; Daglb; stronger effect = lower value
Chain of Diacylglycerol lipase-beta (Mus musculus) (Q91WC9 whole entry, looked up): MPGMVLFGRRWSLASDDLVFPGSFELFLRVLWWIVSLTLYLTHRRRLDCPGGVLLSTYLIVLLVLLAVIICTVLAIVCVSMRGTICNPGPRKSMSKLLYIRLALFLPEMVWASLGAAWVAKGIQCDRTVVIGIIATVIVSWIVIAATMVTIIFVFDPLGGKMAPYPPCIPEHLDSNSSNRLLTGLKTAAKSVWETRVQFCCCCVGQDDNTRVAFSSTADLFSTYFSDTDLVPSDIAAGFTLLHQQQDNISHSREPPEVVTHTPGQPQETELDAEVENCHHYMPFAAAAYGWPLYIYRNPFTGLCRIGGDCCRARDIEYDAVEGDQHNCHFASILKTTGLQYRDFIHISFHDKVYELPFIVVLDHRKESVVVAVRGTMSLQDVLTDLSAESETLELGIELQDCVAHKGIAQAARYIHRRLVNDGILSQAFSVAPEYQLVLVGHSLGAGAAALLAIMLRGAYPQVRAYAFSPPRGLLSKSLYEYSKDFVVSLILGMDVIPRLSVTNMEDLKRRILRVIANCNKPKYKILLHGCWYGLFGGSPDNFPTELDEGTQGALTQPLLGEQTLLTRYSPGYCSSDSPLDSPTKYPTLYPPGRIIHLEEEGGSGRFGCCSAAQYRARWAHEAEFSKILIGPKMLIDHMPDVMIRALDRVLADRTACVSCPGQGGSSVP

Dpp4 = settings: mouse tissue ABPP MudPIT, FP-probe spectral counts, stronger effect = lower value
Dpp7 = settings: mouse tissue ABPP MudPIT, FP-probe spectral counts, stronger effect = lower value
Dpp8 = settings: mouse tissue ABPP MudPIT, FP-probe spectral counts, stronger effect = lower value
Dpp9 = settings: mouse tissue ABPP MudPIT, FP-probe spectral counts, stronger effect = lower value
Elane = settings: mouse tissue ABPP MudPIT, FP-probe spectral counts, stronger effect = lower value
Fam108b = settings: mouse tissue ABPP MudPIT, FP-probe spectral counts, stronger effect = lower value
Fasn = settings: mouse tissue ABPP MudPIT, FP-probe spectral counts, stronger effect = lower value
Iah1 = settings: mouse tissue ABPP MudPIT, FP-probe spectral counts, stronger effect = lower value
Kiaa1363 = settings: mouse tissue ABPP MudPIT, FP-probe spectral counts, stronger effect = lower value
Lipe = settings: mouse tissue ABPP MudPIT, FP-probe spectral counts, stronger effect = lower value
Lpl = settings: mouse tissue ABPP MudPIT, FP-probe spectral counts, stronger effect = lower value
Lypla1 = settings: mouse tissue ABPP MudPIT, FP-probe spectral counts, vehicle vs compound significance, stronger effect = lower value
Lypla2 = settings: mouse tissue ABPP MudPIT, FP-probe spectral counts, stronger effect = lower value
Magl = settings: mouse tissue ABPP MudPIT, FP-probe spectral counts, stronger effect = lower value
[3] = target: Monoacylglycerol lipase ABHD6 (Mus musculus) (UniProt Q8R2Y0); settings: mouse tissue ABPP MudPIT, FP-probe spectral counts, stronger effect = lower value
Chain of Monoacylglycerol lipase ABHD6 (Mus musculus) (Q8R2Y0 whole entry, looked up): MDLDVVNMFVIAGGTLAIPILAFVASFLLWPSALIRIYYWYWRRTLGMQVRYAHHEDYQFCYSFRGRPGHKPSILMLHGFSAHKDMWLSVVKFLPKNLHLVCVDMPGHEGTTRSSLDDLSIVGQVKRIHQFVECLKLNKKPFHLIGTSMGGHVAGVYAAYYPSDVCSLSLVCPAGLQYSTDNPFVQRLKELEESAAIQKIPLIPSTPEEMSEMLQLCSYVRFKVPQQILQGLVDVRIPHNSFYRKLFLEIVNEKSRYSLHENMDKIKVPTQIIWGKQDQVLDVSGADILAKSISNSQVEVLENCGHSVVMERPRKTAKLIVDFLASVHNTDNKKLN

Pafah1b2 = settings: mouse tissue ABPP MudPIT, FP-probe spectral counts, stronger effect = lower value
Pafah1b3 = settings: mouse tissue ABPP MudPIT, FP-probe spectral counts, stronger effect = lower value
Pafah2 = settings: mouse tissue ABPP MudPIT, FP-probe spectral counts, vehicle vs compound significance, stronger effect = lower value
[4] = target: Palmitoyl-protein thioesterase ABHD10, mitochondrial (Mus musculus) (UniProt Q6PE15); settings: mouse tissue ABPP MudPIT, FP-probe spectral counts, stronger effect = lower value
Chain of Palmitoyl-protein thioesterase ABHD10, mitochondrial (Mus musculus) (Q6PE15 whole entry, looked up): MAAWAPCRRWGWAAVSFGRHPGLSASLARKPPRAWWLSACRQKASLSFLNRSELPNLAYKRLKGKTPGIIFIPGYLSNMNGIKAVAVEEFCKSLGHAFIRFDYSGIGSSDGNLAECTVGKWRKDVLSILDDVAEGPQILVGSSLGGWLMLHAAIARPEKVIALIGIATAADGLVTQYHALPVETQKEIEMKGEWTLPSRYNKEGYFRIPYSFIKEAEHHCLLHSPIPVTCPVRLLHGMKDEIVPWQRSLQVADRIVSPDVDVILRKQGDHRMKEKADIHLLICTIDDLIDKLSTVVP

Parl = settings: mouse tissue ABPP MudPIT, FP-probe spectral counts, stronger effect = lower value
Pla2g15 = settings: mouse tissue ABPP MudPIT, FP-probe spectral counts, stronger effect = lower value
Pla2g7 = settings: mouse tissue ABPP MudPIT, FP-probe spectral counts, vehicle vs compound significance, stronger effect = lower value
[5] = target: Platelet-activating factor acetylhydrolase (Mus musculus) (UniProt Q60963); settings: mouse tissue ABPP MudPIT, FP-probe spectral counts; Pla2g7; stronger effect = lower value
Chain of Platelet-activating factor acetylhydrolase (Mus musculus) (Q60963 whole entry, looked up): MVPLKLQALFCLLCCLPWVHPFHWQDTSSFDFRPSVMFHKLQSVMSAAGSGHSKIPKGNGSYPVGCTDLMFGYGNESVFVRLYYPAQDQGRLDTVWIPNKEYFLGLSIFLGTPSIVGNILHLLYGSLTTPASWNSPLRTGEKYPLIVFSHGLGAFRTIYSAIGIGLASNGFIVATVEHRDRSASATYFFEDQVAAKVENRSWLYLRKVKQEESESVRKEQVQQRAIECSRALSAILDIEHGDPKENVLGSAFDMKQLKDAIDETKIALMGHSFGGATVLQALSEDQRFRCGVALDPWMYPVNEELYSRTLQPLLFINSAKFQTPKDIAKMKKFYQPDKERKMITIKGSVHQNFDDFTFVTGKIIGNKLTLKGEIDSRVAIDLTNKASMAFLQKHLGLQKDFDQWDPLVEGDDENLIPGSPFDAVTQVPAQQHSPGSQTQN

[6] = target: Platelet-activating factor acetylhydrolase 2, cytoplasmic (Mus musculus) (UniProt Q8VDG7); settings: mouse tissue ABPP MudPIT, FP-probe spectral counts; Pafah2; stronger effect = lower value
Chain of Platelet-activating factor acetylhydrolase 2, cytoplasmic (Mus musculus) (Q8VDG7 whole entry, looked up): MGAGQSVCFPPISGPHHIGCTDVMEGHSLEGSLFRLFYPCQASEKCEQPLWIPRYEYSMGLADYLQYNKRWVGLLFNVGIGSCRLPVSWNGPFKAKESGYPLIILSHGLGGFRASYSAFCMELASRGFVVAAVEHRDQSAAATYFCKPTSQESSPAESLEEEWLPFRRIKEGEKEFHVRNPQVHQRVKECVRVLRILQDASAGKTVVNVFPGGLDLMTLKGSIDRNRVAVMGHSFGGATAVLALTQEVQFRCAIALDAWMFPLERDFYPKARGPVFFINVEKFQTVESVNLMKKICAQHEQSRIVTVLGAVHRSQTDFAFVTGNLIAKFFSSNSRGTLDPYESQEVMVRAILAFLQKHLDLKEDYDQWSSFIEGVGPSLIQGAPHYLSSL

Pnpla6 = settings: mouse tissue ABPP MudPIT, FP-probe spectral counts, stronger effect = lower value
Pnpla7 = settings: mouse tissue ABPP MudPIT, FP-probe spectral counts, stronger effect = lower value
Pnpla8 = settings: mouse tissue ABPP MudPIT, FP-probe spectral counts, stronger effect = lower value
Prcp = settings: mouse tissue ABPP MudPIT, FP-probe spectral counts, stronger effect = lower value
[7] = vehicle vs compound significance

P value (Abhd10): 0.961
spectral counts, test compound (Abhd11): 23 (inactive)
P value (Abhd11; [7]): 0.167
spectral counts, test compound (Abhd12): 64.7 (inactive)
P value (Abhd12; [7]): 0.512
P value (Abhd6): 0.033
spectral counts, test compound (Acot1): 48.3 (inactive)
P value (Acot1; [7]): 0.802
spectral counts, test compound (Acot2): 85 (inactive)
P value (Acot2; [7]): 0.094
spectral counts, test compound [1]: 84 (inactive)
spectral counts, test compound (Aoah): 35.7 (inactive)
P value (Aoah; [7]): 0.389
spectral counts, test compound (Apeh): 252 (inactive)
P value (Apeh; [7]): 0.731
spectral counts, test compound (Ctsa): 57.7 (inactive)
P value (Ctsa; [7]): 0.562
spectral counts, test compound (Ctsg): 283 (inactive)
P value (Ctsg; [7]): 0.854
P value (Daglb): 0.004
spectral counts, test compound [2]: 0
spectral counts, test compound (Dpp4): 146 (inactive)
P value (Dpp4; [7]): 0.754
spectral counts, test compound (Dpp7): 61.7 (inactive)
P value (Dpp7; [7]): 0.138
spectral counts, test compound (Dpp8): 31.3 (inactive)
P value (Dpp8; [7]): 0.949
spectral counts, test compound (Dpp9): 134 (inactive)
P value (Dpp9; [7]): 0.213
spectral counts, test compound (Elane): 120 (inactive)
P value (Elane; [7]): 0.837
spectral counts, test compound (Fam108b): 24 (inactive)
P value (Fam108b; [7]): 0.757
spectral counts, test compound (Fasn): 178 (inactive)
P value (Fasn; [7]): 0.517
spectral counts, test compound (Iah1): 22.3 (inactive)
P value (Iah1; [7]): 0.127
spectral counts, test compound (Kiaa1363): 206 (inactive)
P value (Kiaa1363; [7]): 0.156
spectral counts, test compound (Lipe): 76 (inactive)
P value (Lipe; [7]): 0.299
spectral counts, test compound (Lpl): 20.3 (inactive)
P value (Lpl; [7]): 0.81
P value (Lypla1): 0.819
spectral counts, test compound (Lypla2): 118 (inactive)
P value (Lypla2; [7]): 0.278
spectral counts, test compound (Magl): 5.67 (inactive)
P value (Magl; [7]): 0.368
spectral counts, test compound [3]: 0
spectral counts, test compound (Pafah1b2): 66 (inactive)
P value (Pafah1b2; [7]): 0.317
spectral counts, test compound (Pafah1b3): 35 (inactive)
P value (Pafah1b3; [7]): 0.532
P value (Pafah2): 0.491
spectral counts, test compound [4]: 22.3 (inactive)
spectral counts, test compound (Parl): 20 (inactive)
P value (Parl; [7]): 0.382
spectral counts, test compound (Pla2g15): 15 (inactive)
P value (Pla2g15; [7]): 0.135
P value (Pla2g7): 0.996
spectral counts, test compound [5]: 97.3 (inactive)
spectral counts, test compound [6]: 33.7 (inactive)
spectral counts, test compound (Pnpla6): 11.3 (inactive)
P value (Pnpla6; [7]): 0.696
spectral counts, test compound (Pnpla7): 34.3 (inactive)
P value (Pnpla7; [7]): 0.536
spectral counts, test compound (Pnpla8): 3.67 (inactive)
P value (Pnpla8; [7]): 0.35
spectral counts, test compound (Prcp): 133 (inactive)
P value (Prcp; [7]): 0.736
SMILES: COc1ccccc1-c1ccc(-c2cn(C(=O)N3CCCCC3Cc3ccccc3)nn2)cc1 (stereo not given)
